This is an account of results in patent US12011444B2, “N-substituted indole derivatives as PGE2 receptor modulators” (Idorsia Pharmaceuticals Ltd, priority 2015, dated 2024).

For one assay, the target named is PTGER2 (EP2) (Homo sapiens (Human), UniProt P43116). The experiment in a line: hEP2 b-arrestin assay (PathHunter HEK 293 PTGER2 b-arrestin cells). The format is cell-based. The essentials: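 Readout is β-galactosidase complementation luminescence, expressed as percent of DMSO control (duplicates). PathHunter HEK293 EP2/β-arrestin 2 cells, grown 24 h, received compound for 15 min at 37 °C before a 120 min challenge with PGE2 at 5 μM final, followed by 1 h detection at room temperature.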
Chain of PTGER2 (EP2) (P43116 whole entry): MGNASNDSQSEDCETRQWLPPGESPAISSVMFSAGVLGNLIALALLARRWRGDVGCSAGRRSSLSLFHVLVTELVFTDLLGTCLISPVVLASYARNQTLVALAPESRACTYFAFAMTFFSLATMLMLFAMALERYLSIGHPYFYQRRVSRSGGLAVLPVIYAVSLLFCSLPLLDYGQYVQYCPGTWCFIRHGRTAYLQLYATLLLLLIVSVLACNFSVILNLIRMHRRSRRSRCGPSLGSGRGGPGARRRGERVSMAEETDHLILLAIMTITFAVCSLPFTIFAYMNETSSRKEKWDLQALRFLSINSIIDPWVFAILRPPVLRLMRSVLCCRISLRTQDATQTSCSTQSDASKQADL

The next assay has as its target PTRGER4 (EP4) (Homo sapiens (Human), UniProt P35408). The experiment in a line: hEP4 b-arrestin assay (PathHunter HEK 293 PTGER4 b-arrestin cells). The format is cell-based. In short, it runs like this:
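Antagonist mode: compound is given 15 min at 37 °C, then 20 nM (final) PGE2 for 120 min, in HEK293 cells stably expressing EP4 fused to ProLink and β-arrestin 2 fused to EA. Recruitment read as β-gal luminescence after 1 h reagent at room temperature, as percent of DMSO control.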

Where [1] appears, read: antagonistic activity on hEP2, mean where measured multiple times.
The mark [2] stands for this setting: antagonistic activity on hEP4, mean where measured multiple times.
The mark [3] stands for this setting: hEP2 b-arrestin assay (values without asterisk).
Setting [4] is: hEP4 b-arrestin assay (values without asterisk).

Chain of PTRGER4 (EP4) (P35408 whole entry, looked up, the tested form may be a part): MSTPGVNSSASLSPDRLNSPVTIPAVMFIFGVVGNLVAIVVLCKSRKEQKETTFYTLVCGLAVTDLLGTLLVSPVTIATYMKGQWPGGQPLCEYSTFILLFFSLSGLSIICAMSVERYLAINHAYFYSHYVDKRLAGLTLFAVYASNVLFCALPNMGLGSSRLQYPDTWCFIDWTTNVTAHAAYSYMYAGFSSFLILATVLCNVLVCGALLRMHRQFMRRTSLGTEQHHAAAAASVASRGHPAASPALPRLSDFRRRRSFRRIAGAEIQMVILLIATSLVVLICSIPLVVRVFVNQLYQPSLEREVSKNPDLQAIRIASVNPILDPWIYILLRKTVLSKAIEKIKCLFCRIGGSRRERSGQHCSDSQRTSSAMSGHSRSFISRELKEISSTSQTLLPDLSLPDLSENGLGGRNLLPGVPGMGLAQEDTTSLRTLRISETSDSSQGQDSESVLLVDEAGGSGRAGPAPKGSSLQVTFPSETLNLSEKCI

In the case of `CCCc1cc(-c2cc(NCCn3c(C)cc4c(F)ccc(Cl)c43)ncn2)ccc1C(=O)O` [compound 143, 4-{6-[2-(7-Chloro-4-fluoro-2-methyl-indol-1-yl)-ethylamino]-pyrimidin-4-yl}-2-propyl-benzoic acid], the half-inhibitory concentration (IC50) (commonly the concentration at which inhibition is half-maximal) against PTGER2 (EP2) (setting [1]) was found to be 5 nM; against PTRGER4 (EP4) (setting [2]), 658 nM.

For the compound `COc1cccc2c1cc(C)n2CCNc1cc(-c2ccc(-c3cscn3)cc2)ncn1` [compound 98, [2-(4-Methoxy-2-methyl-indol-1-yl)-ethyl]-[6-(4-thiazol-4-yl-phenyl)-pyrimidin-4-yl]-amine], the IC50 on PTGER2 (EP2) (setting [1]) worked out at 7 nM; on PTRGER4 (EP4) (setting [2]), 230 nM.

With `CCOc1cc(-c2cc(NCCn3c(C)cc4c(Cl)cc(Cl)cc43)ncn2)ccc1C(=O)O` [compound 279], the concentration for half-maximal inhibition (IC50) on PTGER2 (EP2) (setting [1]) worked out at 22 nM; at PTRGER4 (EP4) (setting [2]), 313 nM.

With `CCOc1cc(-c2cc(NCCn3c(C)cc4c(OC)ccc(F)c43)ncn2)ccc1NCC(=O)O` [Example 811, (2-Ethoxy-4-{6-[2-(7-fluoro-4-methoxy-2-methyl-indol-1-yl)-ethylamino]-pyrimidin-4-yl}-phenylamino)-acetic acid], the IC50 is 3 nM against PTGER2 (EP2) (setting [3]) and 20 nM against PTRGER4 (EP4) (setting [4]).

With `CCOc1cc(-c2cc(NCCn3c(C#N)cc4c(OC)ccc(F)c43)ncn2)ccc1NC(=O)C(=O)O` [Example 853, N-(4-{6-[2-(2-Cyano-7-fluoro-4-methoxy-indol-1-yl)-ethylamino]-pyrimidin-4-yl}-2-ethoxy-phenyl)-oxalamic acid], the figures for the IC50 against PTGER2 (EP2) (setting [3]) and against PTRGER4 (EP4) (setting [4]) were 5 nM and 1 nM, respectively.

For the compound `N#Cc1cc2cccc(F)c2n1CCNc1cc(-c2cc(F)c(C(=O)O)s2)ncn1` [Example 901, 5-{6-[2-(2-Cyano-7-fluoro-indol-1-yl)-ethylamino]-pyrimidin-4-yl}-3-fluoro-thiophene-2-carboxylic acid], the IC50 was 7 nM against PTGER2 (EP2) (setting [3]) and 76 nM against PTRGER4 (EP4) (setting [4]).

Regarding `CCNc1csc(-c2cc(NCCn3c(C)cc4c(OC)cc(F)cc43)ncn2)c1` [Example 1070, [6-(4-Ethylamino-thiophen-2-yl)-pyrimidin-4-yl]-[2-(6-fluoro-4-methoxy-2-methyl-indol-1-yl)-ethyl]-amine], the figures for the IC50 on PTGER2 (EP2) (setting [3]) and on PTRGER4 (EP4) (setting [4]) were 10 nM and 18 nM, respectively.

On to `CCc1cc(-c2cc(NCCn3c(C)cc4c(OC)ccc(F)c43)ncn2)cc(Cl)c1C(=O)O` [compound 346], for which the IC50 was determined as 56 nM against PTGER2 (EP2) (setting [1]) and 50 nM against PTRGER4 (EP4) (setting [2]).

On to `CCC1NC(=O)c2ccc(-c3cc(NCCn4c(C)cc5c(OC)ccc(F)c54)ncn3)cc21` (racemic) [compound 319], for which the IC50 was found to be 10 nM on PTGER2 (EP2) (setting [1]) and 296 nM against PTRGER4 (EP4) (setting [2]).

For `CCCC(=O)OCOC(=O)c1sc(-c2cc(NCCn3c(C#N)cc4c(OC)ccc(F)c43)ncn2)cc1OCC` [Example 1045, 5-{6-[2-(2-Cyano-7-fluoro-4-methoxy-indol-1-yl)-ethylamino]-pyrimidin-4-yl}-3-ethoxy-thiophene-2-carboxylic acid butyryloxymethyl ester], the figures for the IC50 at PTGER2 (EP2) (setting [3]) and against PTRGER4 (EP4) (setting [4]) were 16 nM and 4 nM, respectively.

Turning to `CCSc1cc(-c2cc(NCCn3c(C)cc4c(C)ccc(Cl)c43)ncn2)ccc1C(=O)O` [compound 146, 4-{6-[2-(7-Chloro-2,4-dimethyl-indol-1-yl)-ethylamino]-pyrimidin-4-yl}-2-ethylsulfanyl-benzoic acid], the IC50 stood at 8 nM at PTGER2 (EP2) (setting [1]) and 334 nM on PTRGER4 (EP4) (setting [2]).

In the case of `CCOc1cc(-c2cc(NCCn3c(C)cc4c(C)cc(F)cc43)ncn2)ccc1-c1noc(=O)[nH]1` [Example 835, 3-(2-Ethoxy-4-{6-[2-(6-fluoro-2,4-dimethyl-indol-1-yl)-ethylamino]-pyrimidin-4-yl}-phenyl)-[1,2,4]oxadiazol-5(4H)-one], the IC50 at PTGER2 (EP2) (setting [3]) stood at 19 nM; against PTRGER4 (EP4) (setting [4]) it was 31 nM.

Take `COc1ccc(F)c2c1cc(C)n2CCNc1cc(-c2ccc(C3(N)CC3)cc2)ncn1` [compound 385]: the IC50 is 183 nM at PTGER2 (EP2) (setting [1]) and 468 nM on PTRGER4 (EP4) (setting [2]).
